Here are results for 21 compounds from US9174948B2, “Desferrithiocin polyether analogues” (University of Florida Research Foundation, Inc., priority 2007, dated 2015).

The subject of experiment [1] is Iron-Overloaded Cebus apella Primates. Conditions: Cebus apella, po, 150 μmol/kg, historical data, cited from earlier work.
For experiment [2] the test system is unchanged. Nature of the experiment: Chelator-induced iron clearance in iron-overloaded Cebus apella primates. It counts as in vivo. Conditions: po, 75 μmol/kg. The text has this: Chelator-Induced Iron Clearance in Iron-Overloaded Cebus apella Primates. The iron-clearance data for all three sets of ligands are presented (Table 2). […] J. Med. Chem. 2003, 46, 1470-1477]>1 (16.8±7.2%) [Bergeron, R. J., Wiegand, J., McManis, J. S., McCosar, B. H., Weimar, W. R., Brittenham, G. M. and Smith, R. E. Effects of C-4 Stereochemistry and C-4′ Hydroxylation on the Iron Clearing Efficiency and Toxicity of Desferrithiocin Analogues. J. Med. Chem. 1999, 42, 2432-2440], the increase is not significant. Although (S)-4′-(HO)-DADFT-PE (3) is the least lipophilic chelator in the 1-3 series, it is just as efficient (ICE, 25.4±7.4%) [Bergeron, R. J., Wiegand, J., McManis, J. S., Vinson, J. R. T., Yao, H., Bharti, N. and Rocca, J. R. (S)-4,5-Dihydro-2-(2-hydroxy-4-hydroxyphenyl)-4-methyl-4-thiazolecarboxylic Acid Polyethers: A Solution to Nephrotoxicity.
The monkeys (3.5-4 kg) were iron overloaded with intravenous iron dextran as specified in earlier publications to provide about 500 mg of iron per kg of body weight [Bergeron, R. J., Streiff, R. R., Wiegand, J., Luchetta, G., Creary, E. A. and Peter, H. H. A Comparison of the Iron-Clearing Properties of 1,2-Dimethyl-3-hydroxypyrid-4-one, 1,2-Diethyl-3-hydroxypyrid-4-one, and Deferoxamine. Blood 1992, 79, 1882-1890]; the serum transferrin iron saturation rose to between 70 and 80%. At least 20 half-lives, 60 d [Wood, J. K., Milner, P. F. and Pathak, U. N. The Metabolism of Iron-dextran Given as a Total-dose Infusion to Iron Deficient Jamaican Subjects. Br. J. Haematol. 1968, 14, 119-129], elapsed before any of the animals were used in experiments evaluating iron-chelating agents.
Fecal and urine samples were collected at 24-h intervals and processed as described previously [Bergeron, R. J., Streiff, R. R., Creary, E. A., Daniels, R. D., Jr., King, W., Luchetta, G., Wiegand, J., Moerker, T. and Peter, H. H. A Comparative Study of the Iron-Clearing Properties of Desferrithiocin Analogues with Desferrioxamine B in a Cebus Monkey Model. Blood 1993, 81, 2166-2173; Bergeron, R. J., Streiff, R. R., Wiegand, J., Vinson, J. R. T., Luchetta, G., Evans, K. M., Peter, H. and Jenny, H.-B. A Comparative Evaluation of Iron Clearance Models. Ann. N.Y. Acad. Sci. 1990, 612, 378-393; Bergeron, R. J., Wiegand, J. and Brittenham, G. M. HBED: A Potential Alternative to Deferoxamine for Iron-Chelating Therapy. Blood 1998, 91, 1446-1452]. Briefly, the collections began 4 d prior to the administration of the test drug and continued for an additional 5 d after the drug was given. Iron concentrations were determined by flame atomic absorption spectroscopy as presented in other publications [Bergeron, R. J., Streiff, R. R., Wiegand, J., Vinson, J. R. T., Luchetta, G., Evans, K. M., Peter, H. and Jenny, H.-B. A Comparative Evaluation of Iron Clearance Models. Ann. N.Y. Acad. Sci. 1990, 612, 378-393; Bergeron, R. J., Wiegand, J., Wollenweber, M., McManis, J. S., Algee, S. E. and Ratliff-Thompson, K. Synthesis and Biological Evaluation of Naphthyldesferrithiocin Iron Chelators. J. Med. Chem. 1996, 39, 1575-1581].
(§1) In the iron-clearing experiments, the rats were given a single 300 μmol/kg dose of drugs 1-9 orally (po).
(§2) J. Med. Chem. 1999, 42, 2432-2440].

For experiment [3], the system named is Non-Iron-Overloaded Rodents. Conditions: rats, po, 300 μmol/kg, historical data, cited from earlier work.
Experiment [4] has as its system Non-Iron-Overloaded Rodents. Nature of the experiment: Chelator-induced iron clearance in non-iron-overloaded, bile duct-cannulated rats. It counts as in vivo, rat (male Sprague-Dawley). Conditions: po, 300 μmol/kg.
Text: Chelator-Induced Iron Clearance in Non-Iron-Overloaded Rodents. […] J. Med. Chem. 2006, 49, 2772-2783]. Recall that iron-clearing efficiency (ICE) is defined as (net iron excretion)/(total iron-binding capacity of the chelator), expressed as a percent. The relative ICE values of compounds 1 and 2 were in keeping with their log Papp values: the more lipophilic, the larger log Papp, the more efficient the chelator. […] However, the ICE trend was in keeping with the biliary ferrokinetics (FIG. 3) and liver concentration of the chelators, for example, 3>1 (FIG. 4).
Cannulation of Bile Duct in Non-Iron-Overloaded Rats has been described previously. […]. […] The urine sample(s) was taken at 24 h intervals. Sample collection and handling are as previously described [Bergeron, R. J., Streiff, R. R., Creary, E. A., Daniels, R. D., Jr., King, W., Luchetta, G., Wiegand, J., Moerker, T. and Peter, H. H. A Comparative Study of the Iron-Clearing Properties of Desferrithiocin Analogues with Desferrioxamine B in a Cebus Monkey Model. Blood 1993, 81, 2166-2173; Bergeron, R. J., Streiff, R. R., Wiegand, J., Vinson, J. R. T., Luchetta, G., Evans, K. M., Peter, H. and Jenny, H.-B. A Comparative Evaluation of Iron Clearance Models. Ann. N.Y. Acad. Sci. 1990, 612, 378-393].
as §1, §2

Read-outs that look alike come from different tables or passages of the source.

Take `C[C@]1(C(=O)O)CSC(c2cccc(O)c2O)=N1` [drawing 18]: in experiment [1], the “Iron-Clearing Efficiency (%)” value is reported as 23.1 ± 5.9%; the “relative percentages of the iron excreted in the stool and urine” value is reported as 83/17.

Turning to `COCCOCCOCCOc1cccc(C2=N[C@@](C)(C(=O)O)CS2)c1O` [drawing 20], in experiment [2], the “Iron-Clearing Efficiency (%)” value is recorded as 24.5 ± 7.6%; the “relative percentages of the iron excreted in the stool and urine” value is on record as 72/28.

As to `C[C@]1(C(=O)O)CSC(c2ccc(O)cc2O)=N1` [drawing 3], in experiment [3], the “relative percentages of the iron excreted in the bile and urine” value (from here on “relative percentages … in the bile and urine”) is listed as 100/0; the “Iron-Clearing Efficiency (%)” value was 1.1 ± 0.8%.

As for `C[C@]1(C(=O)O)CSC(c2cc(O)ccc2O)=N1` [drawing 6], in experiment [3], the “relative percentages … in the bile and urine” value was 99/1; the “Iron-Clearing Efficiency (%)” value is 1.0 ± 0.9%.

As for `COc1ccc(O)c(C2=N[C@@](C)(C(=O)O)CS2)c1` [drawing 7], in experiment [3], the “relative percentages … in the bile and urine” value is listed as 95/5; the “Iron-Clearing Efficiency (%)” value is on record as 6.3 ± 1.2%.

With `COCCOCCOCCOc1ccc(O)c(C2=N[C@@](C)(C(=O)O)CS2)c1` [drawing 17], in experiment [2], the “Iron-Clearing Efficiency (%)” value is reported as 8.1 ± 2.8%; the “relative percentages of the iron excreted in the stool and urine” value is on record as 56/44.

On to `COc1ccc(O)c(C2=N[C@@](C)(C(=O)O)CS2)c1` [drawing 16], for which, in experiment [1], the “Iron-Clearing Efficiency (%)” value was 18.9 ± 2.3%; the “relative percentages of the iron excreted in the stool and urine” value is reported as 94/6.

Turning to `C[C@]1(C(=O)O)CSC(c2cc(O)ccc2O)=N1` [Compound 4, (S)-2-(2,5-dihydroxyphenyl)-4,5-dihydro-4-methyl-4-thiazolecarboxylic acid], the results for the “Iron-Clearing Efficiency (%)” value in experiment [3] and in experiment [1] were 1.0±0.9% and 12.6±3.0%, respectively.

Regarding `COCCOCCOCCOc1ccc(C2=N[C@@](C)(C(=O)O)CS2)c(O)c1` [drawing 5], in experiment [3], the “relative percentages … in the bile and urine” value is given as 90/10; the “Iron-Clearing Efficiency (%)” value is reported as 5.5 ± 1.9%.

On to `COc1cccc(C2=N[C@@](C)(C(=O)O)CS2)c1O` [drawing 19], for which, in experiment [1], the “Iron-Clearing Efficiency (%)” value is 22.5 ± 7.1%; the “relative percentages of the iron excreted in the stool and urine” value is recorded as 91/9.

In the case of `COc1ccc(C2=N[C@@](C)(C(=O)O)CS2)c(O)c1` [drawing 13], in experiment [1], the “Iron-Clearing Efficiency (%)” value was 24.4 ± 10.8%; the “relative percentages of the iron excreted in the stool and urine” value was 91/9.

As to `C[C@]1(C(=O)O)CSC(c2ccc(O)cc2O)=N1` [drawing 12], in experiment [1], the “Iron-Clearing Efficiency (%)” value was 16.8 ± 7.2%; the “relative percentages of the iron excreted in the stool and urine” value is listed as 88/12.

`C[C@]1(C(=O)O)CSC(c2cccc(O)c2O)=N1` [drawing 9]: in experiment [4], the “Iron-Clearing Efficiency (%)” value worked out at 4.6 ± 0.9%; the “relative percentages … in the bile and urine” value is listed as 98/2.

On to `COc1ccc(C2=N[C@@](C)(C(=O)O)CS2)c(O)c1` [drawing 4], for which, in experiment [3], the “relative percentages … in the bile and urine” value is 98/2; the “Iron-Clearing Efficiency (%)” value is 6.6 ± 2.8%.

For the compound `COc1ccc(O)c(C2=N[C@@](C)(C(=O)O)CS2)c1` [Compound 5, (S)-4,5-dihydro-2-(2-hydroxy-5-methoxyphenyl)-4-methyl-4-thiazolecarboxylic acid], the “Iron-Clearing Efficiency (%)” value is given as 6.3±1.2% in experiment [3] and 18.9±2.3% in experiment [1].

With `COCCOCCOCCOc1cccc(C2=N[C@@](C)(C(=O)O)CS2)c1O` [drawing 11], in experiment [4] (48 h sample collection period), the “Iron-Clearing Efficiency (%)” value was 10.6 ± 4.4%; the “relative percentages … in the bile and urine” value is listed as 95/5.

On to `COCCOCCOCCOc1ccc(O)c(C2=N[C@@](C)(C(=O)O)CS2)c1` [drawing 8], for which, in experiment [4], the “Iron-Clearing Efficiency (%)” value was 8.0 ± 1.8%; the “relative percentages … in the bile and urine” value is 98/2.

As to `COc1cccc(C2=N[C@@](C)(C(=O)O)CS2)c1O` [Compound 8], the “Iron-Clearing Efficiency (%)” value is given as 22.5±7.1% in experiment [1] and 12.4±3.5% in experiment [4] (48 h sample collection period).

`COCCOCCOCCOc1ccc(C2=N[C@@](C)(C(=O)O)CS2)c(O)c1` [drawing 14]: in experiment [1], the “Iron-Clearing Efficiency (%)” value is given as 25.4 ± 7.4%; the “relative percentages of the iron excreted in the stool and urine” value is on record as 96/4.

Turning to `COc1cccc(C2=N[C@@](C)(C(=O)O)CS2)c1O` [drawing 10], in experiment [4] (48 h sample collection period), the “Iron-Clearing Efficiency (%)” value is 12.4 ± 3.5%; the “relative percentages … in the bile and urine” value is recorded as 99/1.

For `C[C@]1(C(=O)O)CSC(c2cc(O)ccc2O)=N1` [drawing 15], in experiment [1], the “Iron-Clearing Efficiency (%)” value is 12.6 ± 3.0%; the “relative percentages of the iron excreted in the stool and urine” value is 88/12.
